How the values were obtained:
CDK9 [1] = target: T1, CDK9 (Homo sapiens, UniProt P50750); test: CDK9 degradation by HiBit assay, NCIH1048 cells; format: cell-based; details: NCIH1048 cells with endogenously tagged N-terminal CDK9-HiBit, 24 hours incubation; read-out: HiBit-NCIH1048.3 DC50
T1 construct: NCIH211 cells with endogenously tagged N-terminal CDK9-HiBit; endogenous in cells; host or cells: NCIH211 cells (endogenous CDK9 locus tagged with HiBit)
Experimental: (§1) Exemplary compounds of the invention were tested for degradation of CDK9. The compounds were tested in 10-dose DC50 duplicate mode with a 3-fold serial dilution starting at 10 μM by HiBit assay (Promega, Inc) as a direct measurement of CDK9 presence, with incubation time of 24 hours using either NCIH211 cells with endogenously tagged N-terminal CDK9-HiBit or NCIH1048 cells with endogenously tagged N-terminal CDK9-HiBit. A control compound (THAL-SNS-032, CAS 2139287-33-3) was tested in 10-dose DC50 mode with 3-fold serial dilution starting at 10 μM. Data was normalized to positive (medium only) and negative (cells with no treatment) controls and curve fits were analyzed with CDK9 as % response vs. log [compound concentration] using a 4-parameter logistic model by GraphPad software. For Table 2: A is <100, B is <1000 C is <10,000, D is >10,000 and ND is Not Determined.

CDK9 [2] = target: T1, CDK9; test: CDK9 degradation by HiBit assay, NCIH211 cells; format: cell-based; details: NCIH211 cells with endogenously tagged N-terminal CDK9-HiBit, 24 hours incubation; read-out: HiBit-NCIH211.2 DC50
Experimental: as §1

T1 sequence (P50750 whole entry): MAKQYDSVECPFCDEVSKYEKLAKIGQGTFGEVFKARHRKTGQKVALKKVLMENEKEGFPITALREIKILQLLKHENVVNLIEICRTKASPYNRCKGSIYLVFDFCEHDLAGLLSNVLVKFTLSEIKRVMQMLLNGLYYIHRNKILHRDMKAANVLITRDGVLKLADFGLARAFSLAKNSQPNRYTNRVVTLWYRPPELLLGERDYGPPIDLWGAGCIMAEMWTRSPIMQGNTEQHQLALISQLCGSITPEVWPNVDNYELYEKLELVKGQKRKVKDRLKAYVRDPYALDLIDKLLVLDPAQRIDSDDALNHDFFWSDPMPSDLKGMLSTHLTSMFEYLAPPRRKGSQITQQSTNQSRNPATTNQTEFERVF
T1 sequence (O60563 whole entry partner): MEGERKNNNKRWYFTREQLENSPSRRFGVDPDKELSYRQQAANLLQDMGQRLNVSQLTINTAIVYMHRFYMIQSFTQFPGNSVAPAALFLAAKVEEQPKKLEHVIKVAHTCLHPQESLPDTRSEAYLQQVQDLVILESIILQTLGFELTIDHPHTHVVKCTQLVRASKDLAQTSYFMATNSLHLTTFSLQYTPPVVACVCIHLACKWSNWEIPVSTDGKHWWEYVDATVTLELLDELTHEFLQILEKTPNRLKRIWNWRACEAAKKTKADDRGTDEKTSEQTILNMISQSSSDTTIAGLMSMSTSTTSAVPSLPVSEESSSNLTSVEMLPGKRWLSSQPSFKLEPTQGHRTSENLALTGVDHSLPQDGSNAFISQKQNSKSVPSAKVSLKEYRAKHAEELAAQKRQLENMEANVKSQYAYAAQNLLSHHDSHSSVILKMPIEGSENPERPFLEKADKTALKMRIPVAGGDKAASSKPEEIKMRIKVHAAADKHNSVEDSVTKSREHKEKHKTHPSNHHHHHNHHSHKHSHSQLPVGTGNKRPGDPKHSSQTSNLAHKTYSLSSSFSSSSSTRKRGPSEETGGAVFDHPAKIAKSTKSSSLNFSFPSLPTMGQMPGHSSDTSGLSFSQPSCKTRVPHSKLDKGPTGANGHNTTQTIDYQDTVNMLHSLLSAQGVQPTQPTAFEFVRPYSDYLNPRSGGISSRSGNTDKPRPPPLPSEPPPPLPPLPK

DC50 (CDK9 [1]) [nM] | DC50 (CDK9 [2]) [nM] | SMILES
< 100 | < 100 | C/C=C(\CC)c1cc(N[C@H]2CC[C@H](NCC(=O)N3CCN(CCCNc4cccc5c4C(=O)N(C4CCC(=O)NC4=O)C5=O)CC3)C2)n2ncc(Cl)c2n1 (stereo partly drawn) [Compound 57.0, 4-[3-[4-[2-[[(1S,3S)-3-[[3-chloro-5-[(E)-1-ethylprop-1-enyl]pyrazolo[1,5-a]pyrimidin-7-yl]amino]cyclopentyl]amino]acetyl]piperazin-1-yl]propylamino]-2-(2,6-dioxo-3-piperidyl)isoindoline-1,3-dione]
< 100 | < 100 | C/C=C(\CC)c1cc(N[C@H]2CC[C@H](NCC(=O)N3CCN(CCCCNc4cccc5c4C(=O)N(C4CCC(=O)NC4=O)C5=O)CC3)C2)n2ncc(Cl)c2n1 (stereo partly drawn) [Compound 59.0, 4-[4-[4-[2-[[(1S,3S)-3-[[3-chloro-5-[(E)-1-ethylprop-1-enyl]pyrazolo[1,5-a]pyrimidin-7-yl]amino]cyclopentyl]amino]acetyl]piperazin-1-yl]butylamino]-2-(2,6-dioxo-3-piperidyl)isoindoline-1,3-dione]
< 100 | < 100 | C/C=C(\CC)c1cc(N[C@H]2CC[C@H](NCC(=O)N3CCN(CCCNc4cccc5c4C(=O)N(C4CCC(=O)NC4=O)C5=O)CC3)C2)n2nccc2n1 (stereo partly drawn) [Compound 21.0, 2-(2,6-dioxo-3-piperidyl)-4-[3-[4-[2-[[(1S,3S)-3-[[5-[(E)-1-ethylprop-1-enyl]pyrazolo[1,5-a]pyrimidin-7-yl]amino]cyclopentyl]amino]acetyl]piperazin-1-yl]propylamino]isoindoline-1,3-dione]
< 1000 | < 10000 | CCC(CC)c1cc(N[C@H]2CC[C@H](NCC(=O)NCCOCCOCCOCCNc3cccc4c3C(=O)N(C3CCC(=O)NC3=O)C4=O)C2)n2nccc2n1 (stereo partly drawn) [Compound 5.0, N-[2-[2-[2-[2-[[2-(2,6-dioxo-3-piperidyl)-1,3-dioxo-isoindolin-4-yl]amino]ethoxy]ethoxy]ethoxy]ethyl]-2-[[(1S,3S)-3-[[5-(1-ethylpropyl)pyrazolo[1,5-a]pyrimidin-7-yl]amino]cyclopentyl]amino]acetamide]
